This experiment deals with biotinylated human S100A9 : rhRAGE-Fc interaction (Homo sapiens (Human), UniProt P06702). The experiment can be described thus: AlphaScreen inhibition assay, Biot-hS100A9:hRAGE-Fc (S100A9-RAGE inhibition assay). The experiment is classed as binding. The source says: FIG. 1 is a schematic representation of an assay of the inhibition of the interaction between biotinylated human S100A9 and human RAGE-Fc using a small molecule S100A9 binder.
Inhibition Assay, Biot-hS100A9:hRAGE-Fc
The AlphaScreen (Amplified Luminescent Proximity Homogeneous Assay) contains two types of beads, Alpha Donor beads and Acceptor beads (PerkinElmer). Upon laser excitation at 680 nm a photosensitizer in the Donor bead converts ambient oxygen to a more excited singlet state. The singlet oxygen molecule diffuses (maximum 200 nm) to react with a thioxene derivative in the Acceptor bead and generates a chemiluminescence reaction. Fluorophores in the Acceptor bead subsequently emit light at 520-620 nm which can be detected in the EnVision® Multilabel plate Reader (PerkinElmer). The beads are light sensitive and all work with the beads is performed under subdued light conditions or using green filters on light sources (Roscolux Chroma Green #389, Rosco).
In the AlphaScreen Inhibition Assay described here, protein A (Staphylococcus aureus) conjugated Acceptor beads are used together with streptavidin coated Donor beads (Perkin Elmer 6760617M). The Acceptor beads are pre-incubated with Fc-tagged recombinant human RAGE (rhRAGE-Fc) allowing binding of the rhRAGE-Fc to protein A on the beads. Biotinylated human S100A9 (biot-hS100A9) is pre-incubated with the low molecular test compounds. The pre-mixes are then added to the wells of a micro-plate and incubated allowing interaction between biot-hS100A9 and rhRAGE-Fc. Subsequent addition of streptavidin coated Donor beads causes binding of the streptavidin to the biotinylated hS100A9. After an additional incubation the signal is measured.
Without inhibitory compounds, the interaction of biot-hS100A9 to rhRAGE-Fc will bring the Acceptor and Donor beads in close proximity thus generating a high signal. With an inhibitor present the complex will not form resulting in a decreased signal.
Chemicals and reagents. • AlphaScreen® General IgG (Protein A) Detection Kit, (PerkinElmer 6760617M) • HBS-P buffer (GE Healthcare, BR-1003-68) • HBS-N buffer (GE Healthcare, BR-1003-69) • CaCl2 in HBS-P • ZnCl2 in Milli-Q water • DMSO • Biotinylated hS100A9, (biotinylated via cystein by EZ-link Iodoacetyl-PEG2-Biotin reagent (Pierce no. 21334), in HBS-N • rhRAGE-Fc (R&D Systems, 1145-RG-50), in HBS-P
The AlphaScreen assay method is used for screening of the inhibitory effect of different compound samples at fixed concentrations or for IC50 determination by varying the compound concentrations. Samples of test compounds and references are prepared from solutions in DMSO. Relevant reference inhibitors and DMSO are used as controls for defined inhibition and non-inhibition, respectively in the assay. The percent inhibition in assay for test compounds and references are calculated by comparing their obtained assay signals with the signal values for the control with only DMSO (no compound).
Assay concentration of biotinylated hS100A9 and rhRAGE-Fc are batch dependent, and are determined and defined by separate cross-titration experiments using this AlphaScreen inhibition method to verify the optimal setup regarding signal strength and achievement of a defined inhibition with relevant reference compounds. The Final assay concentrations of Acceptor and Donor beads are 20 μg/mL.
Experimental Set Up for Screening, Preparation of Solutions and Beads.
Assay buffer is prepared by adding CaCl2 and ZnCl2 to HBS-P and is used freshly prepared in the experiment.
Biotin-hS100A9 solution for the experiment is prepared by dilution of appropriate amount of stock solution biot-hS100A9 in assay buffer (with CaCl2 and ZnCl2) and incubation in room temperature for 30 minutes.
rhRAGE-Fc solution for the experiment is prepared by dilution appropriate amount of rhRAGE-Fc stock in assay buffer.
Protein A Acceptor beads are diluted in assay buffer and are added to an equal volume of the prepared diluted rhRAGE-Fc solution.

Each structure is given as a SMILES string.

The values below come from patent publication US10125125B2, “N-(heteroaryl)-sulfonamide derivatives useful as S100-inhibitors” (Active Biotech AB, priority 2013, dated 2018).

biotinylated human S100A9 : rhRAGE-Fc interaction, sequence (P06702 whole entry): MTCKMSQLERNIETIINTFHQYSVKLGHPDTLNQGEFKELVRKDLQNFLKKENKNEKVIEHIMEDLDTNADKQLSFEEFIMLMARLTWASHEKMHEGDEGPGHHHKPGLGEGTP

The term IC50 denotes the concentration at which inhibition is half-maximal. On to `O=S(=O)(Nc1nnc(C(F)(F)F)cc1O)c1cc(F)cc(Cl)c1` [Example 163, 3-chloro-5-fluoro-N-[4-hydroxy-6-(trifluoromethyl)pyridazin-3-yl]benzene-1-sulfonamide], for which the IC50 was > 1000 nM.

Take `CCCc1ccc(S(=O)(=O)Nc2ccc(Cl)nc2O)cc1` [Example 179, N-(6-chloro-2-hydroxypyridin-3-yl)-4-propylbenzene-1-sulfonamide]: the IC50 is < 1000 nM.

Consider `CS(=O)(=O)c1cnc(NS(=O)(=O)Cc2cc(Cl)cc(Cl)c2)c(O)n1` [Example 112, 1-(3,5-dichlorophenyl)-N-(3-hydroxy-5-methanesulfonylpyrazin-2-yl)methane-sulfonamide], for which the IC50 stood at 420 nM.

On to `O=S(=O)(Nc1ccnc(Cl)c1O)c1cc(Cl)cc(Cl)c1` [Example 170, 3,5-dichloro-N-(2-chloro-3-hydroxypyridin-4-yl)benzene-1-sulfonamide], for which the IC50 was < 1000 nM.

As to `COc1ncc(CS(=O)(=O)Nc2ccc(Cl)nc2O)cc1Cl` [Example 182, N-(6-chloro-2-hydroxypyridin-3-yl)-1-(5-chloro-6-methoxypyridin-3-yl)methane-sulfonamide], the IC50 was < 1000 nM.

As to `COc1ncc(S(=O)(=O)Nc2cnccc2O)cc1Br` [Example 62, 5-bromo-N-(4-hydroxypyridin-3-yl)-6-methoxypyridine-3-sulfonamide], the half-maximal inhibitory concentration (IC50) was found to be 4400 nM.

For the molecule `O=S(=O)(Cc1cc(Cl)cc(Cl)c1)Nc1nnc(S(=O)(=O)CCCO)cc1O` [Example 139, 1-(3,5-dichlorophenyl)-N-[4-hydroxy-6-(3-hydroxypropanesulfonyl)pyridazin-3-yl]methanesulfonamide], the IC50 is < 1000 nM.

As to `CS(=O)(=O)c1cnc(NS(=O)(=O)Cc2cc(Cl)cc(Cl)c2)c(O)c1` [Example 32, 1-(3,5-dichlorophenyl)-N-(3-hydroxy-5-methanesulfonylpyridin-2-yl)methane-sulfonamide], the IC50 was determined as 140 nM.

Consider `N#Cc1cnc(NS(=O)(=O)Cc2cc(Cl)cc(Cl)c2)c(O)n1` [Example 103, N-(5-cyano-3-hydroxypyrazin-2-yl)-1-(3,5-dichlorophenyl)methanesulfonamide], for which the concentration for half-maximal inhibition (IC50) is < 1000 nM.

Take `O=S(=O)(Cc1ccc(F)c(F)c1)Nc1nnc(Cl)cc1O` [Example 76, N-(6-chloro-4-hydroxypyridazin-3-yl)-1-(3,4-difluorophenyl)methanesulfonamide]: the IC50 was < 1000 nM.

For the molecule `O=S(=O)(Nc1cnccc1O)c1cc(Cl)sc1Cl` [Example 63, 2,5-dichloro-N-(4-hydroxypyridin-3-yl)thiophene-3-sulfonamide], the IC50 amounted to 4600 nM.

Regarding `CS(=O)(=O)c1cnc(NS(=O)(=O)c2cc(Cl)cc(Cl)c2)c(O)n1` [Example 159, 3,5-dichloro-N-(3-hydroxy-5-methanesulfonylpyrazin-2-yl)benzene-1-sulfonamide], the half-maximal inhibitory concentration (IC50) amounted to 1800 nM.

For `COc1ccc(S(=O)(=O)Nc2cncc(Cl)c2O)cc1Cl` [Example 122, 3-chloro-N-(5-chloro-4-hydroxypyridin-3-yl)-4-methoxybenzene-1-sulfonamide], the 50% inhibitory concentration (IC50) was > 1000 nM.

With `O=S(=O)(Cc1cc(Cl)cc(Cl)c1)Nc1cncc(Br)c1O` [Example 97, N-(5-bromo-4-hydroxypyridin-3-yl)-1-(3,5-dichlorophenyl)methanesulfonamide], the half-maximal inhibitory concentration (IC50) is 3800 nM.

Take `O=S(=O)(Cc1cc(Cl)cc(Cl)c1)Nc1ncc(S(=O)(=O)C2CCCC2)cc1O` [Example 131, N-[5-(cyclopentanesulfonyl)-3-hydroxypyridin-2-yl]-1-(3,5-dichlorophenyl)methane-sulfonamide]: the IC50 was found to be 120 nM.

With `N#Cc1cnc(NS(=O)(=O)Cc2cc(Cl)cc(Cl)c2)c(O)c1` [Example 189, N-(5-cyano-3-hydroxypyridin-2-yl)-1-(3,5-dichlorophenyl)methanesulfonamide], the IC50 is 120 nM.

`O=S(=O)(Cc1cc(Cl)cc(Cl)c1)Nc1nc(Cl)ncc1O` [Example 143, N-(2-chloro-5-hydroxypyrimidin-4-yl)-1-(3,5-dichlorophenyl)methanesulfonamide]: the half-inhibitory concentration (IC50) is 180 nM.

Regarding `O=S(=O)(Cc1cc(Cl)cc(Cl)c1)Nc1cc(Cl)c(Cl)nc1O` [Example 173, N-(5,6-dichloro-2-hydroxypyridin-3-yl)-1-(3,5-dichlorophenyl)methanesulfonamide], the IC50 was < 1000 nM.

`COc1ncc(S(=O)(=O)Nc2cnc(C(F)(F)F)cc2O)cc1Br` [Example 137, 5-bromo-N-[4-hydroxy-6-(trifluoromethyl)pyridin-3-yl]-6-methoxypyridine-3-sulfonamide]: the concentration for half-maximal inhibition (IC50) worked out at 1800 nM.

For the molecule `CCS(=O)(=O)c1ccc(NS(=O)(=O)Cc2cc(Cl)cc(Cl)c2)c(O)n1` [Example 188, 1-(3,5-dichlorophenyl)-N-[6-(ethanesulfonyl)-2-hydroxypyridin-3-yl]methane-sulfonamide], the IC50 is < 1000 nM.

On to `O=S(=O)(Nc1ncc(Cl)cc1O)c1ccc(C(F)(F)F)nc1` [Example 41, N-(5-chloro-3-hydroxypyridin-2-yl)-6-(trifluoromethyl)pyridine-3-sulfonamide], for which the half-inhibitory concentration (IC50) is > 1000 nM.

For `O=S(=O)(Nc1cncc(Cl)c1O)c1ccc(OC(F)(F)F)c(Cl)c1` [Example 102, 3-chloro-N-(5-chloro-4-hydroxypyridin-3-yl)-4-(trifluoromethoxy)benzene-1-sulfonamide], the half-maximal inhibitory concentration (IC50) stood at 2200 nM.

Consider `CCSc1cc(Cl)cc(CS(=O)(=O)Nc2ccc(Cl)nc2O)c1` [Example 186, N-(6-chloro-2-hydroxypyridin-3-yl)-1-[3-chloro-5-(ethylsulfanyl)phenyl]methane-sulfonamide], for which the IC50 was < 1000 nM.

Take `O=S(=O)(Nc1nc(Cl)ncc1O)c1ccc(Cl)c(Cl)c1` [Example 144, 3,4-dichloro-N-(2-chloro-5-hydroxypyrimidin-4-yl)benzene-1-sulfonamide]: the half-maximal inhibitory concentration (IC50) is < 1000 nM.

Turning to `N#Cc1cc(CS(=O)(=O)Nc2ncc(Cl)cc2O)cs1` [Example 127, N-(5-chloro-3-hydroxypyridin-2-yl)-1-(5-cyanothiophen-3-yl)methanesulfonamide], the IC50 is 1110 nM.

As for `O=S(=O)(Cc1cnc(N2CCCC2)c(Cl)c1)Nc1ccc(Cl)nc1O` [Example 185, N-(6-chloro-2-hydroxypyridin-3-yl)-1-[5-chloro-6-(pyrrolidin-1-yl)pyridin-3-yl]-methanesulfonamide], the half-inhibitory concentration (IC50) is < 1000 nM.

Take `O=S(=O)(Nc1nnc(Cl)cc1O)c1cc(Cl)sc1Cl` [Example 113, 2,5-dichloro-N-(6-chloro-4-hydroxypyridazin-3-yl)thiophene-3-sulfonamide]: the IC50 is 2000 nM.

As to `N#Cc1cncc(NS(=O)(=O)Cc2cc(Cl)cc(Cl)c2)c1O` [Example 138, N-(5-cyano-4-hydroxypyridin-3-yl)-1-(3,5-dichlorophenyl)methanesulfonamide], the IC50 is 3900 nM.

As for `N#Cc1nc(NS(=O)(=O)Cc2cc(Cl)cc(Cl)c2)c(O)cc1Cl` [Example 130, N-(5-chloro-6-cyano-3-hydroxypyridin-2-yl)-1-(3,5-dichlorophenyl)methane-sulfonamide], the IC50 was determined as 390 nM.

In the case of `CC(C)c1cnc(NS(=O)(=O)c2cnc(Cl)c(Br)c2)c(O)c1` [Example 11, 5-bromo-6-chloro-N-[3-hydroxy-5-(propan-2-yl)pyridin-2-yl]pyridine-3-sulfonamide], the IC50 was > 1000 nM.

`O=S(=O)(Nc1cc(Cl)cnc1O)c1cc(Cl)sc1Cl` [Example 74, 2,5-dichloro-N-(5-chloro-2-hydroxypyridin-3-yl)thiophene-3-sulfonamide]: the IC50 was 2600 nM.
